In PubChem BioAssay (NCI):
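Results reflect a 48-hour exposure of cells in 96-well plates to compound at five concentrations. GI50: concentration for 50% inhibition of growth. TGI: total growth inhibition.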

Key:
Assay in all cases: DTP human tumour cell line panel, 48 h
MALME-3M melanoma = system: MALME-3M melanoma
SF-539 CNS = system: SF-539 CNS
OVCAR-4 ovarian = system: OVCAR-4 ovarian
M14 melanoma = system: M14 melanoma
786-0 renal = system: 786-0 renal
KM12 colon = system: KM12 colon
MDA-MB-435 = system: MDA-MB-435
HL-60(TB) leukemia = system: HL-60(TB) leukemia
SK-OV-3 ovarian = system: SK-OV-3 ovarian
DU-145 prostate = system: DU-145 prostate
NCI-H226 lung = system: NCI-H226 lung
HCC-2998 colon = system: HCC-2998 colon
OVCAR-3 ovarian = system: OVCAR-3 ovarian
UACC-257 melanoma = system: UACC-257 melanoma
CCRF-CEM leukemia = system: CCRF-CEM leukemia
A498 renal = system: A498 renal
HOP-62 NSCLC = system: HOP-62 NSCLC
SF-295 CNS = system: SF-295 CNS
CAKI-1 renal = system: CAKI-1 renal
SNB-19 CNS = system: SNB-19 CNS
K-562 leukemia = system: K-562 leukemia
PC-3 prostate = system: PC-3 prostate
HCT-15 colon = system: HCT-15 colon
UO-31 renal = system: UO-31 renal
MDA-MB-231 breast = system: MDA-MB-231 breast
MOLT-4 leukemia = system: MOLT-4 leukemia
BT-549 breast = system: BT-549 breast
RXF 393 renal = system: RXF 393 renal
SK-MEL-28 melanoma = system: SK-MEL-28 melanoma
NCI-H23 lung = system: NCI-H23 lung
HS 578T breast = system: HS 578T breast
T-47D breast = system: T-47D breast
COLO 205 colon = system: COLO 205 colon
LOX IMVI melanoma = system: LOX IMVI melanoma
TK-10 renal = system: TK-10 renal
OVCAR-5 ovarian = system: OVCAR-5 ovarian
MCF7 breast = system: MCF7 breast
A549 NSCLC = system: A549 NSCLC
ACHN renal = system: ACHN renal
HT29 colon = system: HT29 colon
SNB-75 CNS = system: SNB-75 CNS
U251 CNS = system: U251 CNS
SK-MEL-2 melanoma = system: SK-MEL-2 melanoma
NCI-H460 lung = system: NCI-H460 lung
UACC-62 melanoma = system: UACC-62 melanoma
SR leukemia = system: SR leukemia
NCI/ADR-RES ovarian = system: NCI/ADR-RES ovarian
IGROV1 ovarian = system: IGROV1 ovarian
SF-268 CNS = system: SF-268 CNS
RPMI-8226 leukemia = system: RPMI-8226 leukemia
HCT-116 colon = system: HCT-116 colon
NCI-H522 lung = system: NCI-H522 lung
OVCAR-8 ovarian = system: OVCAR-8 ovarian
SK-MEL-5 melanoma = system: SK-MEL-5 melanoma
HOP-92 NSCLC = system: HOP-92 NSCLC
SW-620 colon = system: SW-620 colon
EKVX NSCLC = system: EKVX NSCLC
SN12C renal = system: SN12C renal

`COc1ccc2c(c1)C(=O)c1c-2n(CCCCl)c(=O)c2cc(OC)c(OC)cc12` was tested, and the GI50 (MALME-3M melanoma) was 18.6 µM, the TGI (MALME-3M melanoma) was > 96.1 µM and the GI50 (SF-539 CNS) was 6.29 µM. For the same compound, the TGI (SF-539 CNS) was > 57.3 µM, the GI50 (OVCAR-4 ovarian) was > 91.7 µM and the TGI (OVCAR-4 ovarian) was > 100 µM. The GI50 (M14 melanoma) was 6.24 µM, the TGI (M14 melanoma) was > 100 µM and the GI50 (786-0 renal) was 5.41 µM. The TGI (786-0 renal) was 31.7 µM, the GI50 (KM12 colon) was > 54.2 µM and the TGI (KM12 colon) was > 100 µM. The GI50 (MDA-MB-435) was 42.5 µM, the TGI (MDA-MB-435) was > 100 µM and the GI50 (HL-60(TB) leukemia) was 4.11 µM. The TGI (HL-60(TB) leukemia) was 18 µM, the GI50 (SK-OV-3 ovarian) was 28.6 µM and the TGI (SK-OV-3 ovarian) was > 100 µM. The GI50 (DU-145 prostate) was 4.01 µM, the TGI (DU-145 prostate) was > 48.1 µM and the GI50 (NCI-H226 lung) was > 79.1 µM. The TGI (NCI-H226 lung) was > 100 µM, the GI50 (HCC-2998 colon) was 17.4 µM and the TGI (HCC-2998 colon) was > 95.9 µM. The GI50 (OVCAR-3 ovarian) was 82.3 µM, the TGI (OVCAR-3 ovarian) was > 100 µM and the GI50 (UACC-257 melanoma) was 45.3 µM. The TGI (UACC-257 melanoma) was > 100 µM, the GI50 (CCRF-CEM leukemia) was 2.02 µM and the GI50 (A498 renal) was > 52.5 µM. For the same compound, the TGI (A498 renal) was > 100 µM, the GI50 (HOP-62 NSCLC) was 5.13 µM and the TGI (HOP-62 NSCLC) was > 51.3 µM. The GI50 (SF-295 CNS) was 3.99 µM, the TGI (SF-295 CNS) was > 100 µM and the GI50 (CAKI-1 renal) was 6.47 µM. The TGI (CAKI-1 renal) was > 24.4 µM, the GI50 (SNB-19 CNS) was 13.2 µM and the TGI (SNB-19 CNS) was > 100 µM. The GI50 (K-562 leukemia) was 32.4 µM, the TGI (K-562 leukemia) was > 100 µM and the GI50 (PC-3 prostate) was 41.5 µM. The TGI (PC-3 prostate) was > 100 µM, the GI50 (HCT-15 colon) was > 96.4 µM and the TGI (HCT-15 colon) was > 100 µM. The GI50 (UO-31 renal) was 8.4 µM, the TGI (UO-31 renal) was > 100 µM and the GI50 (MDA-MB-231 breast) was > 100 µM. The TGI (MDA-MB-231 breast) was > 100 µM, the GI50 (MOLT-4 leukemia) was 2.55 µM and the TGI (MOLT-4 leukemia) was 6.29 µM. The GI50 (BT-549 breast) was > 100 µM, the TGI (BT-549 breast) was > 100 µM and the TGI (RXF 393 renal) was > 21.1 µM. The GI50 (SK-MEL-28 melanoma) was > 79.4 µM, the TGI (SK-MEL-28 melanoma) was > 100 µM and the GI50 (NCI-H23 lung) was 15.5 µM. The TGI (NCI-H23 lung) was > 100 µM, the GI50 (HS 578T breast) was > 77.2 µM and the TGI (HS 578T breast) was > 100 µM. For the same compound, the GI50 (T-47D breast) was 13.5 µM, the TGI (T-47D breast) was > 100 µM and the GI50 (COLO 205 colon) was > 100 µM. For the same compound, the TGI (COLO 205 colon) was > 100 µM, the GI50 (LOX IMVI melanoma) was 6.87 µM and the TGI (LOX IMVI melanoma) was > 61.9 µM. For the same compound, the GI50 (TK-10 renal) was > 70.2 µM, the TGI (TK-10 renal) was > 100 µM and the GI50 (OVCAR-5 ovarian) was > 100 µM. The TGI (OVCAR-5 ovarian) was > 100 µM, the GI50 (MCF7 breast) was 6.27 µM and the TGI (MCF7 breast) was > 100 µM. The GI50 (A549 NSCLC) was 12 µM, the TGI (A549 NSCLC) was > 100 µM and the GI50 (ACHN renal) was 3.28 µM. The TGI (ACHN renal) was 14 µM, the GI50 (HT29 colon) was > 52.1 µM and the TGI (HT29 colon) was > 100 µM. The GI50 (SNB-75 CNS) was > 24.7 µM, the TGI (SNB-75 CNS) was > 75.5 µM and the GI50 (U251 CNS) was 5.95 µM. For the same compound, the TGI (U251 CNS) was > 100 µM, the GI50 (SK-MEL-2 melanoma) was > 100 µM and the TGI (SK-MEL-2 melanoma) was > 100 µM. For the same compound, the GI50 (NCI-H460 lung) was 2.4 µM, the TGI (NCI-H460 lung) was > 100 µM and the GI50 (UACC-62 melanoma) was 4.6 µM. For the same compound, the TGI (UACC-62 melanoma) was > 100 µM, the GI50 (SR leukemia) was 1.39 µM and the TGI (SR leukemia) was 6.62 µM. The GI50 (NCI/ADR-RES ovarian) was 11.6 µM, the TGI (NCI/ADR-RES ovarian) was > 100 µM and the GI50 (IGROV1 ovarian) was 17.1 µM. The TGI (IGROV1 ovarian) was > 100 µM, the GI50 (SF-268 CNS) was 8.63 µM and the TGI (SF-268 CNS) was > 100 µM. For the same compound, the GI50 (RPMI-8226 leukemia) was 2.14 µM, the TGI (RPMI-8226 leukemia) was 14.5 µM and the GI50 (HCT-116 colon) was 8.68 µM. The TGI (HCT-116 colon) was > 100 µM, the GI50 (NCI-H522 lung) was 9.12 µM and the TGI (NCI-H522 lung) was > 95 µM. The GI50 (OVCAR-8 ovarian) was 53.4 µM, the TGI (OVCAR-8 ovarian) was > 100 µM and the GI50 (SK-MEL-5 melanoma) was 9.2 µM. For the same compound, the TGI (SK-MEL-5 melanoma) was 30.1 µM, the GI50 (HOP-92 NSCLC) was > 32.6 µM and the TGI (HOP-92 NSCLC) was > 86.4 µM. The GI50 (SW-620 colon) was 19.6 µM, the TGI (SW-620 colon) was > 100 µM and the GI50 (EKVX NSCLC) was > 100 µM. The TGI (EKVX NSCLC) was > 100 µM, the GI50 (SN12C renal) was 6.67 µM and the TGI (SN12C renal) was > 100 µM.
